How the values were obtained:
[1] = system: anaesthetized female rabbits under conditions of vesical irritation; assay: Activity of the striated anal sphincter (EMG-SAS) and vesical capacity in anaesthetized female rabbits under vesical irritation by diluted acetic acid; assay type: in vivo, rabbit
Description: The effect of 4-[(2-naphthalenyl)-methoxy]-piperidine (compound A) and of its solvent (NaCl 0.9%) on the electromyographic activity of the striated anal sphincter (EMG-SAS), used as a marker of the activity of the urethral sphincter, and on the vesical capacity (VC) was studied in vivo in anaesthetized female rabbits under conditions of vesical irritation induced by intra-vesical perfusion of diluted acetic acid (Perez Martinez et al., 2006 and Haab et al., 2006). […] 16 New Zealander female white rabbits (2.5-3.5 kg) anaesthetized by intramuscular injection of a mixture of ketamin (25 mg/kg) and sylazin (10 mg/kg), were subject to cystostomy. After laparotomy by median incision, a catheter was introduced at the dome of the bladder and held in place by a purse suture. A multiperforable plug was placed at the end of the catheter, and then the catheter was internalized subcutaneously and attached at the abdomen with a silk ligature. 3 days after cystotomy, cystomanometry was performed on animals anaesthetized with halothane (2-3%). A T-tube was connected at the multiperformable plug, and then connected to a pressure sensor (Letica, PanLab) and to a micro-pump allowing perfusion of the bladder (Razel 99, Scientific Instruments). […] The micturitional profile was continuously recorded by means of a data acquisition system (PowerLab 4/25, PanLab) and the different urodynamic parameters, including vesical capacity (VC), were determined. […] The electric signal, amplified and filtered (bandwidth 1 Hz-5 kHz) was continuously recorded by means of the data acquisition system. EMG-SAS was measured during the phase for filling the bladder, in order to get rid of the parasitics related to perineal movements occurring during micturition.
A catheter was implanted at the vein of the ear in order to allow administration of compound A or of its solvent (NaCl 0.9%) in a volume of 1 mL. […] During a stabilization period (SP) of at least 60 minutes, during which the bladder was perfused, in order to induce regular micturitional cycles, two consecutive doses (1 and 3 mg/kg of compound A or of solvent were administered intravenously, at intervals of 40 minutes. For each of the tested doses, the effects of the compound A and of its solvent on EMG-SAS and on VC were expressed as a percentage of the stabilization period (mean±standard error of mean). During the stabilization period, the parameters obtained in both experimental groups (compound A and solvent) were the same (p>0.05; Kruskal-Wallis test): for EMG-SAS, 1.76±1.04 (n=8) and 1.41±0.59 activity peaks/minute (n=8), for the compound A and its solvent and for VC, respectively, 21.63±4.92 (n=8) and 18.31±2.90 mL (n=8), for the compound A and its solvent respectively. […]

[2] = system: anaesthetized female rats under vesical irritation conditions; assay: Vesical capacity in anaesthetized female rats under vesical irritation by diluted acetic acid; assay type: in vivo, rat; settings: 2 mg/kg i.v., mean±SEM, n=8
Experimental: After laparotomy, a bursa was formed at the dome of the bladder, and then a catheter was introduced and ligatured at this bursa. A catheter was implanted at the jugular vein in order to allow administration of the compound A or its solvent. Cystomanometry was performed on the animals placed beforehand on a heating plate, in order to maintain their body temperature around 37° C. A 3-way valve was positioned at the end of the vesical catheter and then connected to a pump allowing perfusion of the bladder (Model “11” plus, Harvard Apparatus) and to a pressure sensor (MX 860/866 Novatrans, Medex Medical). Diluted acetic acid (0.3%) held at room temperature was perfused into the bladder (3 mL/h) in order to induce successive micturitions under vesical irritation conditions. The micturitional profile was continuously recorded by means of a data acquisition system (MacLab/8^e, AD Instruments) and the different urodynamic parameters, including vesical capacity (VC) were determined. […] The compound A (2 mg/kg) or its solvent were then injected intravenously in a volume of 1 mL administered within 5 minutes by means of a syringe pump (Model A-99, Fisher Bioblock Scientific). The effects of the compound A and of its solvent on VC were evaluated at times, 20, 40 and 60 minutes after administration and expressed as a percentage of variation of the basal value (mean±standard error of mean). In both experimental groups (compound A and solvent), the basal values of VC were the same (p>0.05; analysis of variance): 0.045±0.005 mL and 0.042±0.006 mL for the solvent (n=11) and the compound A (n=8), respectively. […] (see compound A group (n=8) in FIG. 2).

[3] = system: human detrusor muscle; assay: Electrically stimulated human detrusor muscle strips in vitro
Experimental: The effect of the compound A and of its solvent (Krebs solution) was tested in vitro on bladder strips taken on two male patients within the scope of a radical cystectomy because of an urothelial carcinoma. The strips were mounted in baths with isolated organs, containing a Krebs solution, heated to 37° C. and oxygenated with carbogen (95% O2 and 5% CO2). After a 60 minute stabilization period, the viability of the strips was tested by performing a contraction with 80 mM KCl. After 30 minutes of wash-out and stabilization, the strips were submitted to electric field stimulation, in order to cause neurogenic contractions. The electric stimulation parameters used were the following: frequency: 30 Hz, maximum voltage, pulse duration 0.1 ms, 5 second pulse trains every 100 s. After stabilization of the neurogenic response (about 30 minutes after beginning of the electric stimulation), a range of cumulative concentration-response curves for the compound A was obtained between 0.01-100 μM. It was shown that from 10 μM, the compound A inhibits in a concentration-dependent way, the contractile response of the detrusor muscle strips to electric stimulation with inhibition percentages of 20.1±4.7% at 10 μM, 41.7±5.2% at 30 μM and 80.8±6.8% at 100 μM. Tested under the same conditions, the solvent of the compound A has an inhibiting effect of the order of 10% on the contractions of the detrusor muscle.

[4] = molecular target: 5-HT1A (Homo sapiens (Human), UniProt P08908); assay: Binding test on cloned human serotoninergic receptor
5-HT1A, sequence (P08908 whole entry): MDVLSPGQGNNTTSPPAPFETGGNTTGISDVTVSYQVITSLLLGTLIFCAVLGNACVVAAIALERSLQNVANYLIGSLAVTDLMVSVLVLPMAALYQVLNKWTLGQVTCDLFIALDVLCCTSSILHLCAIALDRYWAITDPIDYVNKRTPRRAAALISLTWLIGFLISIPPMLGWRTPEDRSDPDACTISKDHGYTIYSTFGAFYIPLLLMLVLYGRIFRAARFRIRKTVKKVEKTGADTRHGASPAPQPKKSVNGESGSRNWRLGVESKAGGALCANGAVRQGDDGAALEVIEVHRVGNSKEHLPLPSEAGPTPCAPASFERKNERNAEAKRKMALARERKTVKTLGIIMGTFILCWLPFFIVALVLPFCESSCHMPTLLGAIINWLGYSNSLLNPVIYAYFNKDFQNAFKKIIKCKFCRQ
Experimental: (§1) The affinity of the compound A was evaluated in vitro on 8 cloned human serotoninergic receptors by measuring the specific binding of the ligands to the corresponding receptors according to methods adapted from Mulheron (1994), Bryant (1996), Choi (1994), Hope (1996), Mialet (2000), Rees (1994) and Shen (1993).

[5] = molecular target: 5-HT2A (agonist) (Homo sapiens (Human), UniProt P28223); assay: as above; settings: 5-HT2A (agonist) site
5-HT2A (agonist), sequence (P28223 whole entry): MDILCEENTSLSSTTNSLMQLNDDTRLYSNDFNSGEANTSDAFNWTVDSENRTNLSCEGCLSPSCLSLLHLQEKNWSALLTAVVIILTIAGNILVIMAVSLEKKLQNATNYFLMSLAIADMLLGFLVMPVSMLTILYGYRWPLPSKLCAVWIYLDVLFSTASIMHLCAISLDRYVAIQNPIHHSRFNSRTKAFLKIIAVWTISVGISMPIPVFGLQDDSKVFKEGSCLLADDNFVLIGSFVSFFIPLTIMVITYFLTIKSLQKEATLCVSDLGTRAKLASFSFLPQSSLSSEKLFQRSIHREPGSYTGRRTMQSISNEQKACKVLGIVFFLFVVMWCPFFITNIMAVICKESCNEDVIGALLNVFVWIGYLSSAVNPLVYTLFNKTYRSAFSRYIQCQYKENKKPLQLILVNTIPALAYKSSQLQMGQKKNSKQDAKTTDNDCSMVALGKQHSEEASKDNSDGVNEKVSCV
Experimental: as §1

[6] = molecular target: 5-HT2B (agonist) (Homo sapiens (Human), UniProt P41595); assay: as above; settings: 5-HT2B (agonist) site
5-HT2B (agonist), sequence (P41595 whole entry): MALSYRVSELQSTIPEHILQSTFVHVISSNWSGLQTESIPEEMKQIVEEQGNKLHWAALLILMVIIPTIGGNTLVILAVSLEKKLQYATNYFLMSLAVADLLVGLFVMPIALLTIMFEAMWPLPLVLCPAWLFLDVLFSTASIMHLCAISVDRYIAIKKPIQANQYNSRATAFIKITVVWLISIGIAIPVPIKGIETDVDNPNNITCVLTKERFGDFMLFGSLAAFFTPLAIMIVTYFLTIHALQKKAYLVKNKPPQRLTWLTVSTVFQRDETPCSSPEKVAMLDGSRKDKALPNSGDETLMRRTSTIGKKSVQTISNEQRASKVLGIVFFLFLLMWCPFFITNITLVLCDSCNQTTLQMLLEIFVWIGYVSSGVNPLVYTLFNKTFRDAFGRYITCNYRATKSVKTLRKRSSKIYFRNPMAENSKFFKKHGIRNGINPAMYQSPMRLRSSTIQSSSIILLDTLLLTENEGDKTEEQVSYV
Experimental: as §1

[7] = molecular target: 5-HT2C (agonist) (Homo sapiens (Human), UniProt P28335); assay: as above; settings: 5-HT2C (agonist) site
5-HT2C (agonist), sequence (P28335 33-458): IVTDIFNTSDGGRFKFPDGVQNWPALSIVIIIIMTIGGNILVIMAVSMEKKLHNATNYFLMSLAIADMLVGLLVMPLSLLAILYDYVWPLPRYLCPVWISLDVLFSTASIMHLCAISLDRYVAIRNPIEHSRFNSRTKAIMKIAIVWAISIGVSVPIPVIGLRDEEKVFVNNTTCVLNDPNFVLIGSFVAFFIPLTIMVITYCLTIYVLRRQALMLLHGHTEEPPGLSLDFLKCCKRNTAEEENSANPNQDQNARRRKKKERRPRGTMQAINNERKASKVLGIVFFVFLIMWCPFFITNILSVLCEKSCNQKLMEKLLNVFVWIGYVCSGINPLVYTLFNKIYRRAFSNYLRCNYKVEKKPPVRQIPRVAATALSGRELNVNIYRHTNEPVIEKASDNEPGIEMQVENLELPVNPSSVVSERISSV
Experimental: as §1

[8] = molecular target: 5-HT3 (Homo sapiens (Human), UniProt P46098); assay: as above
5-HT3, sequence (P46098 24-478): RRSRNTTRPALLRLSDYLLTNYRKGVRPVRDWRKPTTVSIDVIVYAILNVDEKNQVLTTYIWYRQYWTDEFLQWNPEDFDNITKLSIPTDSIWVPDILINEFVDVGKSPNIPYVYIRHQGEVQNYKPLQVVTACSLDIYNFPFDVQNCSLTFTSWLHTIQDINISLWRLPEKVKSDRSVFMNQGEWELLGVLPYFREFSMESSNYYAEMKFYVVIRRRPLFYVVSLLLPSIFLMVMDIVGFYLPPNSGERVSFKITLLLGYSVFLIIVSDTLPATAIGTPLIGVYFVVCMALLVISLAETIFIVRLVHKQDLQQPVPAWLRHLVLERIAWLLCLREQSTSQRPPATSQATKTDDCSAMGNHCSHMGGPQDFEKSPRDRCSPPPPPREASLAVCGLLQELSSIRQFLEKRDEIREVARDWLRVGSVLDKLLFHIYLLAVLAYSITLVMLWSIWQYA
Experimental: as §1

[9] = molecular target: 5-HT4e (Homo sapiens (Human), UniProt Q13639); assay: as above
5-HT4e, sequence (Q13639 other isoform, or with tags, fused parts or gaps): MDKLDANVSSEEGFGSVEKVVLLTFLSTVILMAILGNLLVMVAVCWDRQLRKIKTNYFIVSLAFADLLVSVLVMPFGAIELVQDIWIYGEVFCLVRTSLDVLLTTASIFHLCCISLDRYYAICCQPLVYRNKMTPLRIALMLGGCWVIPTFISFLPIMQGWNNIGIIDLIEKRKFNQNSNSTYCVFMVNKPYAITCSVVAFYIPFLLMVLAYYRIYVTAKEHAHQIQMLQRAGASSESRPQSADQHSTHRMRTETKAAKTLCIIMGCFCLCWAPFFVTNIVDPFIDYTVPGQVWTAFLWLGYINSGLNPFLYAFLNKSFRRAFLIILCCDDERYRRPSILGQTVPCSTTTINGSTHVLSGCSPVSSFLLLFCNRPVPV
Experimental: as §1

[10] = molecular target: 5-HT5A (Homo sapiens (Human), UniProt P47898); assay: as above
5-HT5A, sequence (P47898 whole entry): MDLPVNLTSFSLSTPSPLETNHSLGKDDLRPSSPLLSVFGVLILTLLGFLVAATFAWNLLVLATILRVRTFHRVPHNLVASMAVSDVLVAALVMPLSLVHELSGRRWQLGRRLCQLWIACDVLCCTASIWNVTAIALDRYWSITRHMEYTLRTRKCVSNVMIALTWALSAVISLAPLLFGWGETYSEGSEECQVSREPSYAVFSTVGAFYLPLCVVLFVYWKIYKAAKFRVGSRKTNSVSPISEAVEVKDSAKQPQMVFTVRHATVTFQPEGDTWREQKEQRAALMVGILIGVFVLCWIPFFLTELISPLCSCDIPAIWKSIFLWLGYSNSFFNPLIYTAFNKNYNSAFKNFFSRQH
Experimental: as §1

[11] = molecular target: 5-HT7 (Homo sapiens (Human), UniProt P34969); assay: as above
5-HT7, sequence (P34969 whole entry): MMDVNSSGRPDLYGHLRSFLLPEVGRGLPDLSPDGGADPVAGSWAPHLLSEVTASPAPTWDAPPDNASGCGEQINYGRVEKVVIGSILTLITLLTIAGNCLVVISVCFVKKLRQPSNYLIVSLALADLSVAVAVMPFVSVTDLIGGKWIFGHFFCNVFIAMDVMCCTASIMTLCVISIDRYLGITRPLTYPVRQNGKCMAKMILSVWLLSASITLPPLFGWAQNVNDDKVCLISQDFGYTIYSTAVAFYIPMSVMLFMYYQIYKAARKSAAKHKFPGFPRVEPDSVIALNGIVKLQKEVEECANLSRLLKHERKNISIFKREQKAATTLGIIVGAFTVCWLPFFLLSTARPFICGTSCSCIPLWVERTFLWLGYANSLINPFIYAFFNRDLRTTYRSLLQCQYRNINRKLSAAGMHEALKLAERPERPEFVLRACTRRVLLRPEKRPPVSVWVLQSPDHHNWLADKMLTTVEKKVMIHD
Experimental: as §1

[12] = molecular target: human 5-HT2C receptor (Homo sapiens (Human), UniProt P28335); assay: Cellular functional test ([35S]GTPγS binding) on cloned human 5-HT2C receptor in CHO cells; assay type: cell-based
human 5-HT2C receptor, sequence (P28335 33-458): as the sequence (P28335 33-458) above
Experimental: The agonistic and antagonistic activities of the compound A were evaluated in vitro on the human 5-HT2C receptor expressed in Chinese hamster ovarian cells (CHO cells) in a range of concentrations comprised between 1 nM and 100 μM by quantitation of the binding of the specific ligand of the receptor, [^35S]GTPγS, according to a method adapted from Adlersberg (2000) and from Cussac (2002).

[13] = system: 5-HT7 receptor in isolated rat bladder; assay: Potentialization by serotonin of the neurogenic response of isolated rat bladder (5-HT7 antagonistic functional test); settings: after incubation with 10 μM of compound A; n=6; solvent 52.7±7.3%
Experimental: The effect of the compound A and of its solvent (Krebs solution) on the potentialization by serotonin of the neurogenic response of isolated rat bladder was studied in vitro. Strips of detrusor muscle taken from Wistar female rats (250-300 grams) were mounted in baths with isolated organs, containing a Krebs solution, heated to 37° C. and oxygenated with carbogen (95% O2 and 5% CO2). After a 60 minute stabilization period, contraction with 80 mM KCl was achieved. After 30 minutes of wash-out and stabilization, the strips were submitted to electric field stimulation, in order to cause neurogenic contractions. The electric stimulation parameters used were the following: frequency: 5 Hz, maximal voltage, pulse duration 0.3 ms, 10 second pulse trains every 60 s. The compound A and its solvent are incubated for 60 minutes, 30 minutes without electric stimulation and 30 minutes during the phase for stabilizing the neurogenic response. After stabilization, a 5-HT cumulative concentration-response curve range was achieved between 0.01-100 μM.

[14] = molecular target: adrenergic receptors α1; assay: Affinity for adrenergic receptors; assay type: binding
[15] = molecular target: adrenergic receptors α2; assay: Affinity for adrenergic receptors; assay type: binding
[16] = molecular target: adrenergic receptors β; assay: Affinity for adrenergic receptors; assay type: binding
[17] = molecular target: muscarinic receptors; assay: Affinity for muscarinic receptors; assay type: binding
[18] = system: recapture of serotonine (5-HT) as compared with that of norepinephrine (NE); settings: selectivity, Scatton 1988; cited from earlier work
[19] = system: recapture of serotonin as compared with that for dopamine (DA); settings: selectivity, Scatton 1988; cited from earlier work
[20] = 1 mg/kg intravenously, relative to stabilization period

## c1ccc2cc(COC3CCNCC3)ccc2c1 [Compound A, 4-[(2-naphthalenyl)-methoxy]-piperidine]
[1]; [20]
  effect on EMG-SAS (electromyographic activity of the striated anal sphincter): did not induce any significant effect
  effect on vesical capacity (VC): did not induce any significant effect
[1]; 3 mg/kg intravenously, mean±SEM, n=7, p=0.018
  increase in EMG-SAS, percentage of the stabilization period: 1,521.90±966.61%
[1]; 3 mg/kg intravenously, mean±SEM, n=8
  increase in VC, percentage of the stabilization period: 123.29±11.62%
[2]; 20 minutes after administration
  increase in VC, percentage of variation of the basal value: 46.25±16.40%
[2]; 40 minutes after administration
  increase in VC, percentage of variation of the basal value: 44.61±17.51%
[2]; 60 minutes after administration
  increase in VC, percentage of variation of the basal value: 60.34±17.8%
[3]; 10 μM
  inhibition of the contractile response of detrusor muscle strips to electric stimulation: 20.1±4.7%
[3]; 30 μM
  inhibition of the contractile response of detrusor muscle strips to electric stimulation: 41.7±5.2%
[3]; 100 μM
  inhibition of the contractile response of detrusor muscle strips to electric stimulation: 80.8±6.8%
[4]
  inhibition of the specific binding of the control: 14%
[5]
  IC50: 1000 nM
[5]; Cheng Prusoff
  Ki: 620 nM
[6]
  IC50: 1000 nM
[6]; Cheng Prusoff
  Ki: 980 nM
[7]
  IC50: 250 nM
[7]; Cheng Prusoff
  Ki: 200 nM
[8]
  IC50: 1400 nM
[8]; Cheng Prusoff
  Ki: 720 nM
[9]
  IC50: 4700 nM
[9]; Cheng Prusoff
  Ki: 1600 nM
[10]
  inhibition of the specific binding of the control: 1%
[11]
  IC50: 7200 nM
[11]; Cheng Prusoff
  Ki: 2600 nM
[12]; 10 μM
  antagonistic activity: 18%
[12]; 3.10^−5 M (plateau)
  agonistic activity: 44%
[12]; 10^−4 M (plateau)
  agonistic activity: 42%
[12]; agonistic activity, [35S]GTPγS, CHO cells, read-out: IC50 (partial agonist for the 5-HT2C receptor)
  IC50: 1500 nM
[12]; between 1 nM and 1 μM
  antagonistic activity: Without any significant antagonistic activity
[13]
  maximum response of 5-HT, % of the reference contraction induced by 80 mM KCl: 18.7±3.2%
[14]
  IC50: 40000 nM
[15]
  IC50: 70000 nM
[16]
  IC50: 100000 nM
[17]
  IC50: 99000 nM
[18]
  IC50 NE/HT ratio: 89
[19]
  IC50 DA/HT ratio: 188

Reference: patent US9511061B2, “Incontinence treatment methods” (IXALTIS, priority 2005, dated 2016)
